The target in this assay is Seed linoleate 13S-lipoxygenase-1 (Glycine max) (UniProt P08170). The experiment in a line: Inhibitory activity against soybean 15-lipoxygenase was evaluated.

The structures appear in SMILES notation.

Seed linoleate 13S-lipoxygenase-1 (Glycine max), sequence (P08170 whole entry, looked up): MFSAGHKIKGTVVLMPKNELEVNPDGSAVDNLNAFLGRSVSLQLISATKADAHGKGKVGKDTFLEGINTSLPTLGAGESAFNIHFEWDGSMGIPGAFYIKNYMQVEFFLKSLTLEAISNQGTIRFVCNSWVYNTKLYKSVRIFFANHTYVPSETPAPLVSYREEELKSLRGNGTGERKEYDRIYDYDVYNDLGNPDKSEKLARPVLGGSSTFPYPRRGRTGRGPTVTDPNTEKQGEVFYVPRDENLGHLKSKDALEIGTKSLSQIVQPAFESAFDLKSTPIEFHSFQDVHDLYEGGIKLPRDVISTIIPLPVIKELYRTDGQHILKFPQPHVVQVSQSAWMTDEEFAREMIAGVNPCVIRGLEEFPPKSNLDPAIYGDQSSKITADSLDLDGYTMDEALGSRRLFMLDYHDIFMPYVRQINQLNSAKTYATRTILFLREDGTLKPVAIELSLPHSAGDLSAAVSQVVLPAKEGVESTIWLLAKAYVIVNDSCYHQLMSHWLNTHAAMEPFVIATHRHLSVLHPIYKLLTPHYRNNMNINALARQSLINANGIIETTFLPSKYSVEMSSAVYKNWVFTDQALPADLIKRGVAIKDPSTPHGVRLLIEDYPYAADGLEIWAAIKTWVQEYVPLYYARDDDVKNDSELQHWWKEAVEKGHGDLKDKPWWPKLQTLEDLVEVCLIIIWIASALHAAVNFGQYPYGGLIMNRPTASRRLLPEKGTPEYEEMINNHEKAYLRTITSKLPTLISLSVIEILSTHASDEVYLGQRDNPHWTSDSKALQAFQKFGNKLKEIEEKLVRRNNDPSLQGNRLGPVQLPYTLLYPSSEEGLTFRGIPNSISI

Molecule `NC1=NN(c2cccc(C(F)(F)F)c2)CC1` [1-(3-Trifluoromethyl-phenyl)-4,5-dihydro-1H-pyrazol-3-ylamine] had an IC50 of 213 µM.

For orientation: IC50 means the concentration that gives 50% inhibition. Read a high IC50 as weaker potency in that assay.

The record behind these values is BindingDB's records for doi:10.1016/S0960-894X(00)80511-9 (1992).
